Measured values taken from US20090264427A1, “3-Cyanoquinolines, Methods for Preparation and Use as Insulin-like Growth Factor Inhibitors” (Wyeth, priority 2008, published 2009).
pIC50: −log10 of the molar value.

tested on: not given; experiment: not given; conditions: not given

Structure (SMILES)	melting point [°C]
CCN1CCN(CCCOc2cc3ncc(C#N)c(Nc4ccc(Sc5nc(C)c(C)n5CC)c(Cl)c4)c3cc2OC)CC1 [Example 17, 4-({3-Chloro-4-[(1-ethyl-4,5-dimethyl-1H-imidazol-2-yl)sulfanyl]phenyl}amino)-7-[3-(4-ethyl-1-piperazinyl)propoxy]-6-methoxy-3-quinolinecarbonitrile]	229 to 230

molecular target: T1, IGF1-receptor kinase (IGFR) (Homo sapiens, UniProt P08069); experiment: 96-well FRET (Lance) tyrosine kinase assay, IGFR; assay type: biochemical; conditions: ATP 100 micromolar final, 1 hour reaction, enzyme form (GST-, Bis- or Tris-IGFR) not given
T1 construct: GST (with thrombin cleavage site) (N); made in house; host or cells: ExpresSF insect cells
T1 sequence (P08069 31-1367): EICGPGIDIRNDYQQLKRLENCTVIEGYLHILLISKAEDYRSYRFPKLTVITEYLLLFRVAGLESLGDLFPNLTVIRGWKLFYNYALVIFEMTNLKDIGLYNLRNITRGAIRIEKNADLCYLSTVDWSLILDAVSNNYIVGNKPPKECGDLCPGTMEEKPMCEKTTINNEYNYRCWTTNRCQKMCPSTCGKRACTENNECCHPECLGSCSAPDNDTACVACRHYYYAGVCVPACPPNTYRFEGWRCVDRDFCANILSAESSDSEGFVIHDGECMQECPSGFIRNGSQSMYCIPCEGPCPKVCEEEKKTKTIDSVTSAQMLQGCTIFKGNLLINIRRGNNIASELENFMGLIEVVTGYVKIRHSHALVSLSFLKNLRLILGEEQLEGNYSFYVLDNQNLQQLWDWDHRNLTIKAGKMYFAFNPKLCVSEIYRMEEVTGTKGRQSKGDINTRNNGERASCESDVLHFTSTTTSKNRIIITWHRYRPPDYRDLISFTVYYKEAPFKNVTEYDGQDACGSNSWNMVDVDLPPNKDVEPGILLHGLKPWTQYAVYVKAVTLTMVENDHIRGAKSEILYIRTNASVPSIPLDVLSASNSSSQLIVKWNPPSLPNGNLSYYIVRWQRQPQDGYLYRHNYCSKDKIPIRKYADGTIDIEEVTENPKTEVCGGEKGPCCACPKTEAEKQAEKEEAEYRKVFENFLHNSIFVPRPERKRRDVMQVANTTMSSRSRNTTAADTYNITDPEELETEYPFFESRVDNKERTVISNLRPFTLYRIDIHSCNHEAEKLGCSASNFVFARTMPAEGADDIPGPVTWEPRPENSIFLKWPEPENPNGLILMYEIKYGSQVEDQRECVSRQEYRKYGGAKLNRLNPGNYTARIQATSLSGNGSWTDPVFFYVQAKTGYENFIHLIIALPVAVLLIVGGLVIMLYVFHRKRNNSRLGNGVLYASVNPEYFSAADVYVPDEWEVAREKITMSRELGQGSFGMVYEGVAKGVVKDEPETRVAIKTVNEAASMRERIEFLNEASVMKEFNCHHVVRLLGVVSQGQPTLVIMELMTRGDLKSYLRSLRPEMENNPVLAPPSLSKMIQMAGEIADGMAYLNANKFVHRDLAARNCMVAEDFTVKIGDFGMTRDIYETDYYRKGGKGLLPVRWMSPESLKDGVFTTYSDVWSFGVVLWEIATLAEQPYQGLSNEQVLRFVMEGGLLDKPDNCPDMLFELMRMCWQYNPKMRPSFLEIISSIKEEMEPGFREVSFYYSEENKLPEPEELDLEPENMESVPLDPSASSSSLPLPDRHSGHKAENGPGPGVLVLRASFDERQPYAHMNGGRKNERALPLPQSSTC

Structure (SMILES)	pIC50
COc1cc2c(Nc3ccc(Sc4nc5cc(C)ccc5n4C)c(Cl)c3)c(C#N)cnc2cc1NCCCN(C)C [Example 3, 4-({3-chloro-4-[(1,5-dimethyl-1H-benzimidazol-2-yl)thio]phenyl}amino)-7-{[3-(dimethylamino)propyl]amino}-6-methoxyquinoline-3-carbonitrile]	6.54
COc1cc2c(Nc3ccc(Sc4nc(C)c(C)n4C)c(Br)c3)c(C#N)cnc2cc1NCCCN(C)C [Example 5, 4-({3-bromo-4-[(1,4,5-trimethyl-1H-imidazol-2-yl)thio]phenyl}amino)-7-{[3-(dimethylamino)-propyl]amino}-6-methoxy-quinoline-3-carbonitrile]	7.52
COc1cc2c(Nc3ccc(Sc4nc(C)c(C)n4C)cc3)c(C#N)cnc2cc1NCCCN(C)C [Example 6, 7-{[3-(dimethyl-amino)propyl]-amino}-6-methoxy-4-({4-[(1,4,5-trimethyl-1H imidazol-2-yl)thio]phenyl}amino)-quinoline-3-carbonitrile]	6.40
CCn1c(Sc2ccc(Nc3c(C#N)cnc4cc(NCCCc5ccccc5)c(OC)cc34)cc2Cl)nc(C)c1C [Example 7, 4-({3-Chloro-4-[(1-ethyl-4,5-dimethyl-1H-imidazol-2-yl)thio]phenyl}amino)-6-methoxy-7-[(3-phenylpropyl)amino]quinoline-3-carbonitrile]	4.76
CCn1c(Sc2ccc(Nc3c(C#N)cnc4cc(NCCCN5CCOCC5)c(OC)cc34)cc2Cl)nc(C)c1C [Example 8, 4-({3-chloro-4-[(1-ethyl-4,5-dimethyl-1H-imidazol-2-yl)thio]phenyl}-amino)-6-methoxy-7-[(3-morpholin-4-ylpropyl)amino]-quinoline-3-carbonitrile]	7.89
CCn1c(Sc2ccc(Nc3c(C#N)cnc4cc(NCCCN(CCO)CCO)c(OC)cc34)cc2Cl)nc(C)c1C [Example 9, 7-({3-[bis(2-hydroxyethyl)amino]propyl}amino)-4-({3-chloro-4-[(1-ethyl-4,5-dimethyl-1H-imidazol-2-yl)thio]phenyl}amino)-6-methoxyquinoline-3-carbonitrile]	7.68
CCn1c(Sc2ccc(Nc3c(C#N)cnc4cc(OCCCNS(=O)(=O)c5ccccc5)c(OC)cc34)cc2Cl)nc(C)c1C [Example 10, N-(3-{4-[3-chloro-4-(1-ethyl-4,5-dimethyl-1H-imidazol-2-ylsulfanyl)-phenylamino]-3-cyano-6-methoxy-quinolin-7-yloxy}-propyl)-benzenesulfonamide]	5.41
CCn1c(Sc2ccc(Nc3c(C#N)cnc4cc(OCCCN(CCO)C(C)(C)C)c(OC)cc34)cc2Cl)nc(C)c1C [Example 11, 7-{3-[tert-butyl(2-hydroxy-ethyl)amino]propoxy}-4-({3-chloro-4-[(1-ethyl-4,5-dimethyl-1H-imidazol-2-yl)thio]phenyl}amino)-6-methoxyquinoline-3-carbonitrile]	7.62
CCOC(=O)N1CCN(CCCOc2cc3ncc(C#N)c(Nc4ccc(Sc5nc(C)c(C)n5CC)c(Cl)c4)c3cc2OC)CC1 [Example 13, ethyl 4-(3-{[4-({3-chloro-4-[(1-ethyl-4,5-dimethyl-1H-imidazol-2-yl)thio]phenyl}amino)-3-cyano-6-methoxyquinolin-7-yl]oxy}propyl)-piperazine-1-carboxylate]	7.39
CCC1CCCCN1CCCOc1cc2ncc(C#N)c(Nc3ccc(Sc4nc(C)c(C)n4CC)c(Cl)c3)c2cc1OC (stereo not drawn) [Example 14, 4-({3-chloro-4-[(1-ethyl-4,5-dimethyl-1H-imidazol-2-yl)thio]phenyl}amino)-7-[3-(2-ethylpiperidin-1-yl)propoxy]-6-methoxy-quinoline-3-carbonitrile]	7.57
CCOC(=O)C1CCN(CCCOc2cc3ncc(C#N)c(Nc4ccc(Sc5nc(C)c(C)n5CC)c(Cl)c4)c3cc2OC)CC1 [Example 15, ethyl 1-(3-{[4-({3-chloro-4-[(1-ethyl-4,5-dimethyl-1H-imidazol-2-yl)thio]phenyl}amino)-3-cyano-6-methoxyquinolin-7-yl]oxy}propyl)-piperidine-4-carboxylate]	6.85
CCn1c(Sc2ccc(Nc3c(C#N)cnc4cc(OCCCNS(C)(=O)=O)c(OC)cc34)cc2Cl)nc(C)c1C [Example 16, N-(3-{[4-({3-chloro-4-[(1-ethyl-4,5-dimethyl-1H-imidazol-2-yl)thio]phenyl]amino)-3-cyano-6-methoxyquinolin-7-yl]oxy}propyl)-methanesulfonamide]	7.46
CCN1CCN(CCCOc2cc3ncc(C#N)c(Nc4ccc(Sc5nc(C)c(C)n5CC)c(Cl)c4)c3cc2OC)CC1 [Example 17, 4-({3-Chloro-4-[(1-ethyl-4,5-dimethyl-1H-imidazol-2-yl)sulfanyl]phenyl}amino)-7-[3-(4-ethyl-1-piperazinyl)propoxy]-6-methoxy-3-quinolinecarbonitrile]	8.30
CCn1c(Sc2ccc(Nc3c(C#N)cnc4cc(OCCCN5CCN(CCO)CC5)c(OC)cc34)cc2Cl)nc(C)c1C [Example 18, 4-({3-chloro-4-[(1-ethyl-4,5-dimethyl-1H-imidazol-2-yl)thio]-phenyl}amino)-7-{3-[4-(2-hydroxyethyl)piperazin-1-yl]propoxy}-6-methoxy-quinoline-3-carbonitrile]	7.96
CCn1c(Sc2ccc(Nc3c(C#N)cnc4cc(OCCCN5CCC(O)C5)c(OC)cc34)cc2Cl)nc(C)c1C (stereo not drawn) [Example 20, 4-({3-chloro-4-[(1-ethyl-4,5-dimethyl-1H-imidazol-2-yl)thio]phenyl}amino)-7-[3-(3-hydroxypyrrolidin-1-yl)propoxy]-6-methoxyquinoline-3-carbonitrile]	7.70
CCOC(=O)CN1CCN(CCCOc2cc3ncc(C#N)c(Nc4ccc(Sc5nc(C)c(C)n5CC)c(Cl)c4)c3cc2OC)CC1 [Example 22, ethyl [4-(3-{[4-({3-chloro-4-[(1-ethyl-4,5-dimethyl-1H-imidazol-2-yl)thio]phenyl}amino)-3-cyano-6-methoxyquinolin-7-yl]oxy}propyl)piperazin-1-yl]acetate]	7.77
CCn1c(Sc2ccc(Nc3c(C#N)cnc4cc(OCCCN5CCOCC5)c(OC)cc34)cc2Cl)nc(C)c1C [Example 24, 4-({3-chloro-4-[(1-ethyl-4,5-dimethyl-1H-imidazol-2-yl)thio]phenyl}amino)-6-methoxy-7-(3-morpholin-4-ylpropoxy)qquinoline-3-carbonitrile]	7.66
CCn1c(Sc2ccc(Nc3c(C#N)cnc4cc(OCCCN5CCC(O)CC5)c(OC)cc34)cc2Cl)nc(C)c1C [Example 26, 4-({3-chloro-4-[(1-ethyl-4,5-dimethyl-1H-imidazol-2-yl)thio]phenyl}amino)-7-[3-(4-hydroxypiperidin-1-yl)propoxy]-6-methoxyquinoline-3-carbonitrile]	7.33
CCn1c(Sc2ccc(Nc3c(C#N)cnc4cc(OCCCN5CCN(C(C)=O)CC5)c(OC)cc34)cc2Cl)nc(C)c1C [Example 27, 7-[3-(4-acetylpiperazin-1-yl)propoxy]-4-({3-chloro-4-[(1-ethyl-4,5-dimethyl-1H imidazol-2-yl)thio]phenyl}amino)-6-methoxyquinoline-3-carbonitrile]	7.80
CCn1c(Sc2ccc(Nc3c(C#N)cnc4cc(NCCCN5CCN(C)CC5)c(OC)cc34)cc2Cl)nc(C)c1C [Example 28, 4-[3-Chloro-4-(1-ethyl-4,5-dimethyl-1H-imidazol-2-ylsulfanyl)-phenylamino]-6-methoxy-7-[3-(4-methyl-piperazin-1-yl)-propylamino]-quinoline-3-carbonitrile]	8.70
